Values joined by “and” are separate entries in the source; they are usually repeats but may differ in a detail not shown here. Equal values may be shown once. “Also recorded” adds a separate entry of the source. Read-outs that look alike come from different tables or passages of the source.
What was measured:
[1] = target: recombinant C-PrP (Mus musculus, UniProt P04925); experiment: biochemical; assay type: binding
[2] = target: recombinant mouse PrP^C (Mus musculus, UniProt P04925); experiment: biochemical; assay type: binding
[3] = target: PrP^23-230 (Mus musculus, UniProt P04925); assay type: binding
[4] = target: T1, moPrP (23-230) (Mus musculus, UniProt P04925); assay type: biochemical
[5] = system: PrP^Sc replication
[6] = target: T2, N-PrP / C-PrP interaction (Mus musculus, UniProt P04925); assay type: binding
[7] = target: T1, moPrP (23-230)
[8] = target: Aβ oligomers binding to PrP^C (Homo sapiens, UniProt P04156)
[9] = target: bovine serum albumin (Bos taurus, UniProt P02769); experiment: biochemical
[10] = system: Aβ oligomer inhibition of LTP in hippocampal slices; assay type: cell-based, mice
[11] = system: Aβ oligomer binding to PrP-expressing HEK cells; assay type: cell-based
[12] = target: C-PrP (120-230) (Mus musculus, UniProt P04925); assay type: binding
[13] = assay type: binding; conditions: read-out: KD (did not bind detectably)
[14] = target: T3, N-PrP (23-111) (Mus musculus, UniProt P04925); assay type: biochemical
[15] = system: postnatal mouse hippocampal neurons treated with Aβ oligomers; assay type: cell-based
[16] = system: moPrP (23-230); assay type: binding, mouse
[17] = target: Aβ oligomers binding to N-PrP (Mus musculus, UniProt P04925)
[18] = target: human recombinant PrP^C (Homo sapiens, UniProt P04156); experiment: biochemical; assay type: binding
[19] = target: T3, N-PrP (23-111); assay type: binding
[20] = target: Aβ oligomers binding to PrP^C (Mus musculus, UniProt P04925); experiment: biochemical
[21] = target: T2, N-PrP / C-PrP interaction; assay type: biochemical
[22] = target: Recombinant C-PrP (residues 120-230) (Mus musculus, UniProt P04925); assay type: binding
[23] = target: BSA (Bos taurus, UniProt P02769); assay type: binding
[24] = target: myoglobin (Equus caballus, UniProt P68082); assay type: binding
Chain of myoglobin (P68082 2-154): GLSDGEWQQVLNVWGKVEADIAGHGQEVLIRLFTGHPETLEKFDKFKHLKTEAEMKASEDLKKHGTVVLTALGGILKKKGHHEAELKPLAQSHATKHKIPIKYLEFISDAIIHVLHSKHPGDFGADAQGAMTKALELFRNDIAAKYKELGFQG

Chain of bovine serum albumin (P02769 25-607): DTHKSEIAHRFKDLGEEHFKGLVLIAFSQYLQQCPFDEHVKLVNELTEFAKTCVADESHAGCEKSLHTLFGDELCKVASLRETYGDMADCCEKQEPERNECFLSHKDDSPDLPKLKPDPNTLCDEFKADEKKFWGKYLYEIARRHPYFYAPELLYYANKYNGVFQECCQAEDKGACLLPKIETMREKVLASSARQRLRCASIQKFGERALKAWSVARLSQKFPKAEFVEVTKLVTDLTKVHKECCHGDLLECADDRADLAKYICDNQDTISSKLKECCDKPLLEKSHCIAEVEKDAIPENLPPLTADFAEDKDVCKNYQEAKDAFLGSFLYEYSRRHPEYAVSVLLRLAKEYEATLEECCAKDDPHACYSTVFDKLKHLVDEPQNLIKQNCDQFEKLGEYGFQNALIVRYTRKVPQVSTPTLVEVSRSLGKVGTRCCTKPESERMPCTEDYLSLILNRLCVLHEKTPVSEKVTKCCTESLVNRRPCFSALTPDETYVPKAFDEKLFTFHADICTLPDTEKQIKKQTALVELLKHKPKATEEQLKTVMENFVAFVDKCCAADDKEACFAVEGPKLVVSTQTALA

2R,3S,4S,5S,6R)-2-(hydroxymethyl)-6-[β-hydroxyphenyl)amino]tetrahydro-2H-pyran-3,4,5-triol [DS5]
competition with / displacement of DS104 (in words) [1]: able to displace DS104; also recorded: competed with DS104
binding to PrP^C by SPR (in words) [2]: lower affinity; also recorded: also bind to PrP^C

FC(F)(F)c1cccc(COn2c(-c3ccccc3)nc3ncccc32)c1 [DS15, reference compound]
binding to PrP^C by EqD (in words) [3]: No binding was observed
Trp fluorescence of full-length PrP (in words) [4]: did not produce any change in Trp fluorescence; also recorded: did not alter the trp fluorescence

NC(=S)NN=C1C(O)C(O)C(O)C(O)C1O [DS26, 2-(2R,3S,5R,6S-pentahydroxycyclohexylidene)hydrazinecarbothioamide]
binding to PrP^C by EqD (in words) [3]: retained by PrP^C in the sample chamber
decrease in the concentration of compound in the assay chamber [3]: 75%
PrP^Sc replication in vitro (in words) [5]: partially inhibits
Kd [1]: 300 nM
competition with / displacement of DS104 (in words) [1]: able to displace DS104; also recorded: competed with DS104
N-PrP binding to C-PrP by SPR (in words) [6]: N-PrP interacted with C-PrP only after pre-injection of DS26; also recorded: N-PrP bound to C-PrP that had been pre-treated with DS26
far-UV CD spectrum of PrP^C (in words) [7]: did not detectably alter the CD spectrum of PrP^C; also recorded: does not affect the far-UV CD spectrum
release of Aβ oligomers pre-bound to PrP^C (in words) [8]: unable to release Aβ that was already attached to PrP^C; also recorded: unable to dislodge Aβ oligomers
Kd [9]: > 1 mM
LTP after Aβ oligomer exposure (in words) [10]: significantly reversed the inhibitory effect of Aβ oligomers on LTP; also recorded: significantly (*p<0.05) enhances LTP after Aβ exposure
LTP with compound alone (in words) [10]: No change in LTP was detected
estimated IC50 on cells (in words) [11]: higher than the corresponding value observed by SPR and ELISA
inhibition of Aβ oligomer binding to PrP^C on cells (in words) [11]: dose-dependent inhibition of Aβ binding; also recorded: inhibits binding of Aβ oligomers to PrP^C on cells
binding to C-PrP (in words) [12]: bound; also recorded: binds
Kd [13]: > 1 mM
Trp fluorescence of N-PrP (in words) [14]: unaffected; also recorded: did not alter the trp fluorescence
DS26 remained bound to PrP^C after washing [2]: 70%
Kd [2]: 0.571 µM
binding to PrP^C by SPR (in words) [2]: sub-micromolar affinity; also recorded: higher affinity; also recorded: stereospecific; also recorded: bound; also recorded: binds; also recorded: bind to PrP^C
koff [2]: 0.00014 s⁻¹
kon [2]: 245 M⁻¹ s⁻¹
rate of dissociation (Koff) from PrP^C (in words) [2]: particularly slow rate of dissociation; also recorded: remarkably slow dissociation kinetics
residence time ([2]; read-out: half-life for the bound state): 83 min
koff ([2]; read-out: koff rate): 0.00014 s⁻¹
kon ([2]; read-out: kon rate): 245 M⁻¹ s⁻¹
levels of synaptic markers after Aβ oligomers (in words) [15]: significantly rescued the levels of all the synaptic markers; also recorded: blocks the toxic effects of Aβ oligomers
levels of synaptic markers with compound alone (in words) [15]: not significantly altered
difference in Tm versus PrP^C alone [16]: 2.11 °C
melting temperature (Tm) of PrP in presence of compound [16]: 68.93±0.1 °C and 68.9 °C
inhibition of Aβ oligomer binding to N-PrP (in words) [17]: failed to inhibit the binding of Aβ oligomers to N-PrP
Kd [18]: 571 nM
binding to human versus mouse PrP^C (in words) [18]: identical affinity
Trp fluorescence of full-length PrP (in words) [4]: dose-dependent quenching; also recorded: quenched the trp fluorescence in a dose-dependent manner
binding to N-PrP (in words) [19]: failed to bind
IC50 [20]: ~15 µM
inhibition of Aβ oligomer binding to PrP^C by SPR (in words) [20]: inhibited binding of Aβ oligomers to PrP^C in a dose-dependent fashion; also recorded: decreased the binding of Aβ oligomers to PrP^C in a dose-dependent manner; also recorded: prevents binding of Aβ oligomers
reduction of the Aβ oligomer-PrP^C interaction [20]: more than 90%
co-immunoprecipitation of C-PrP with N-PrP (in words) [21]: Co-immunoprecipitation of the two PrP fragments occurred only after incubation with DS26; also recorded: C-PrP was immunoprecipitated with N-PrP only in the presence of DS26

OC[C@@H](O)[C@H](O)[C@@H](O)c1nnn[nH]1 [DS40, (1S,2R,3R)-1-(1H-tetrazol-5-yl)butane-1,2,3,4-tetrol]
competition with / displacement of DS104 (in words) [1]: able to displace DS104; also recorded: competed with DS104
binding to C-PrP (in words) [12]: bound
binding to PrP^C by SPR (in words) [2]: lower affinity; also recorded: bind to PrP^C
rate of dissociation (Koff) from PrP^C (in words) [2]: particularly slow rate of dissociation
Kd [18]: 801 nM
binding to human versus mouse PrP^C (in words) [18]: identical affinity
binding to N-PrP (in words) [19]: failed to bind

O=C1OC(C(O)C(O)CO)C(O)C1O (stereo not drawn) [DS86, 3R,4S-dihydroxy-5S-(1,2,3-trihydroxypropyl)dihydrofuran-2(3H)-one]
binding to PrP^C by SPR (in words) [2]: lower affinity; also recorded: also bind to PrP^C

O=C(O)c1cc(NC(=S)NN=C2C(O)C(O)C(O)C(O)C2O)ccc1-c1c2ccc(=O)cc-2oc2cc(O)ccc12 [DS104, (Z)—N-(3′,6′-dihydroxy-3-oxo-3H-spiro[isobenzofuran-1,9′-xanthen]-5-yl)-2-((2R,3R,4S,5R,6S)-2,3,4,5,6-pentahydroxycyclohexylidene)hydrazinecarbothioamide]
Kd [22]: 4 µM
binding to BSA by FP [23]: not detected
binding to myoglobin by FP [24]: not detected

COc1ccc(CCNC(=S)N/N=C2\[C@@H](O)[C@@H](O)[C@@H](O)[C@H](O)[C@H]2O)cc1OC [DS207]
Kd [2]: 64.8 µM
binding to PrP^C by SPR (in words) [2]: bind to PrP^C

CC(C)(C)NC(=S)N/N=C1\[C@@H](O)[C@@H](O)[C@@H](O)[C@H](O)[C@H]1O [DS210]
Kd [2]: 63.1 µM
binding to PrP^C by SPR (in words) [2]: bind to PrP^C

O[C@@H]1[C@H](O)[C@H](O)/C(=N\NC(=S)NCc2ccc(F)cc2)[C@H](O)[C@H]1O [DS211]
Kd [2]: 62.3 µM
binding to PrP^C by SPR (in words) [2]: bind to PrP^C

O=C(CN1CCCC1)Nc1ccc(Cc2ccc(NC(=O)CN3CCCC3)cc2)cc1 [GN8, N,N′-(methylenedi-4,1-phenylene)bis[2-(1-pyrrolidinyl)acetamide], reference compound]
binding to PrP^C by EqD (in words) [3]: No binding was observed; also recorded: failed to detect binding
Kd [2]: > 1000 µM
binding to PrP^C by SPR (in words) [2]: does not bind; also recorded: no detectable binding; also recorded: failed to bind; also recorded: failed to detect binding
inhibition of Aβ oligomer binding to PrP^C by SPR (in words) [20]: does not bind PrPC in the SPR assay used for studying the binding of PrPC ligands to PrPC or inhibit binding of Aβ oligomers to PrP^C

From US10391068B2 (priority 2012, dated 2019)
